Reference: patent US20200087340A1, “LIF/LIFR ANTAGONIST IN ONCOLOGY AND NONMALIGNANT DISEASES” (Evestra, Inc., priority 2018, published 2020)

How the values were obtained:
Type in all cases: cell-based, human
NCI/ADR-RES = experiment: NCI-60 screening, Ovarian Cancer
SF-295 = experiment: NCI-60 screening, CNS Cancer
MOLT-4 = experiment: NCI-60 screening, Leukemia
MDA-MB-468 = experiment: NCI-60 screening, Breast Cancer
Experimental: EC 330 was also tested using the NCI-60 Screening Methodology. The human tumor cell lines of the cancer screening panel are grown in RPMI 1640 medium containing 5% fetal bovine serum and 2 mM L-glutamine. For a typical screening experiment, cells are inoculated into 96 well microtiter plates in 100 μL at plating densities ranging from 5,000 to 40,000 cells/well depending on the doubling time of individual cell lines. After cell inoculation, the microtiter plates are incubated at 37° C., 5% CO2, 95% air and 100% relative humidity for 24 h prior to addition of experimental drugs. […]
Following drug addition, the plates are incubated for an additional 48 h at 37° C., 5% CO2, 95% air, and 100% relative humidity. […] Bound stain is subsequently solubilized with 10 mM trizma base, and the absorbance is read on an automated plate reader at a wavelength of 515 nm. […] Using the seven absorbance measurements [time zero, (Tz), control growth, (C), and test growth in the presence of drug at the five concentration levels (Ti)], the percentage growth is calculated at each of the drug concentrations levels. Percentage growth inhibition is calculated as: […]
Three dose response parameters are calculated for each experimental agent. […] The drug concentration resulting in total growth inhibition (TGI) is calculated from Ti=Tz. […]

C#CC(F)(F)[C@]1(O)CCC2C3CCC4=CC(=O)CCC4=C3C(c3ccc(C4CC4)cc3)C[C@@]21C (stereo partly drawn) [EC330, 17α-(1,1-difluoro-2-propyn-1-yl)-17β-hydroxy-11β-[4-p-(cyclopropyl)phenyl]estra-4,9-dien-3-one]
TGI (log10TGI) (NCI/ADR-RES): −5.41
TGI (log10TGI) (SF-295): <−8.00
TGI (log10TGI) (MOLT-4): −5.30
TGI (log10TGI) (MDA-MB-468): −6.09
